Assay results taken from PubChem BioAssay AID248 (DTP/NCI, 2004).
Values joined by “and” are separate entries in the source; they are usually repeats but may differ in a detail not shown here. Identical values can stand only once. Inconclusive results and toxic doses are left out. No stated cut-off is given here; in the data, active means T/C of 150% or more; inactive means T/C below 125%.

System: L1210 leukemia ip in BDF1 mice, survival T/C
Experiment: NCI In Vivo Anticancer Drug Screen. Data for tumor model L1210 Leukemia (intraperitoneal) in B6D2F1 (BDF1) mice
Conditions: endpoint: mean survival time, higher = longer survival
Outline: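 Read-out is survival time, reported as the treated-group measurement over the vehicle-control measurement.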

[1] = dose: 100.0 mg/kg/injection, schedule: Q04DX002 (ip), vehicle: saline with Tween-80
[2] = dose: 200.0 mg/kg/injection, schedule: Q04DX002 (ip), vehicle: saline with Tween-80
[3] = dose: 400.0 mg/kg/injection, schedule: Q04DX002 (ip), vehicle: saline with Tween-80
[4] = dose: 100.0 mg/kg/injection, schedule: Q01DX009 (ip), vehicle: Klucel (hydroxypropylcellulose) (HPC)
[5] = dose: 200.0 mg/kg/injection, schedule: Q01DX009 (ip), vehicle: Klucel (hydroxypropylcellulose) (HPC)
[6] = dose: 400.0 mg/kg/injection, schedule: Q01DX009 (ip), vehicle: Klucel (hydroxypropylcellulose) (HPC)
[7] = dose: 100.0 mg/kg/injection, schedule: Q04DX003 (ip), vehicle: saline with Tween-80
[8] = dose: 200.0 mg/kg/injection, schedule: Q04DX003 (ip), vehicle: saline with Tween-80
[9] = dose: 400.0 mg/kg/injection, schedule: Q04DX003 (ip), vehicle: saline with Tween-80
[10] = dose: 100.0 mg/kg/injection, schedule: Q01DX001 (ip), vehicle: carboxymethylcellulose (CMC)
[11] = dose: 200.0 mg/kg/injection, schedule: Q01DX001 (ip), vehicle: carboxymethylcellulose (CMC)
[12] = dose: 100.0 mg/kg/injection, schedule: Q04DX003 (ip), vehicle: Klucel (hydroxypropylcellulose) (HPC)
[13] = dose: 200.0 mg/kg/injection, schedule: Q04DX003 (ip), vehicle: Klucel (hydroxypropylcellulose) (HPC)
[14] = dose: 400.0 mg/kg/injection, schedule: Q04DX003 (ip), vehicle: Klucel (hydroxypropylcellulose) (HPC)

Measured: T/C

CCCCCCCCOC(=O)c1[nH]cnc1/N=N\N(C)C
inactive: dose: 45.0 mg/kg/injection, schedule: Q01DX015 (ip), vehicle: other 103 % of control | dose: 88.0 mg/kg/injection, schedule: Q01DX001 (ip), vehicle: other 96 % of control | dose: 100.0 mg/kg/injection, schedule: Q01DX001 (ip), vehicle: other 102 % of control | dose: 133.0 mg/kg/injection, schedule: Q01DX001 (ip), vehicle: other 88 % of control | dose: 133.0 mg/kg/injection, schedule: Q01DX009 (ip), vehicle: other 101 % of control | dose: 180.0 mg/kg/injection, schedule: Q01DX015 (ip), vehicle: other 122 % of control | dose: 200.0 mg/kg/injection, schedule: Q01DX001 (ip), vehicle: other 109 % of control and 90 % of control | dose: 200.0 mg/kg/injection, schedule: Q01DX009 (ip), vehicle: other 95 % of control | dose: 300.0 mg/kg/injection, schedule: Q01DX001 (ip), vehicle: other 100 % of control | dose: 300.0 mg/kg/injection, schedule: Q01DX009 (ip), vehicle: other 100 % of control | dose: 400.0 mg/kg/injection, schedule: Q01DX001 (ip), vehicle: other 104 % of control | dose: 450.0 mg/kg/injection, schedule: Q01DX009 (ip), vehicle: other 97 % of control

COc1cc(C(=O)NC(=S)Nc2ccc3ccccc3c2)cc(OC)c1OC
inactive: [1] 91 % of control | [2] 97 % of control | [3] 91 % of control

N=C(N)SCc1cccc(Cl)c1
inactive: dose: 25.0 mg/kg/injection, schedule: Q04DX002 (ip), vehicle: saline with Tween-80 100 % of control | dose: 50.0 mg/kg/injection, schedule: Q04DX002 (ip), vehicle: saline with Tween-80 93 % of control | [1] 90 % of control

O=C(O)CCOC(C[N+](=O)[O-])C(Cl)(Cl)Cl (stereo not drawn)
inactive: [4] 96 % of control | [5] 97 % of control | [6] 94 % of control

c1ccc(CCCSc2ccccc2)cc1
inactive: dose: 100.0 mg/kg/injection, schedule: Q01DX009 (ip), vehicle: saline with Tween-80 120 % of control | [7] 108 % of control | dose: 200.0 mg/kg/injection, schedule: Q01DX009 (ip), vehicle: saline with Tween-80 104 % of control | [8] 94 % of control | [9] 100 % of control

O=C1CCC(c2cccc([N+](=O)[O-])c2)=NN1
inactive: [4] 89 % of control | [5] 93 % of control | [6] 89 % of control

CCN(CC)CC(=O)NCC(CCN1CCCCC1)(Cc1cccc2ccccc12)C(C)C (stereo not drawn)
inactive: dose: 12.5 mg/kg/injection, schedule: Q04DX003 (ip), vehicle: saline 106 % of control | dose: 25.0 mg/kg/injection, schedule: Q04DX003 (ip), vehicle: saline 98 % of control | dose: 50.0 mg/kg/injection, schedule: Q04DX003 (ip), vehicle: saline 97 % of control

CN(C)c1ccc(N=Nc2cc(Cl)cc(Cl)c2)cc1
inactive: [10] 89 % of control | [11] 91 % of control

O=C(c1ccc(C(=O)N(c2ccccc2)C2CCCCC2)cc1)N(c1ccccc1)C1CCCCC1
inactive: [4] 96 % of control | [5] 100 % of control | [6] 86 % of control

O=C1c2cccc3c([N+](=O)[O-])ccc(c23)C(=O)N1CCc1ccccn1
inactive: [1] 106 % of control | [2] 95 % of control | [3] 103 % of control

C=CCNC(=S)N/N=C\c1cc(OC)c(OC)c(OC)c1
inactive: [7] 96 % of control | [8] 94 % of control | [9] 98 % of control

CN/N=C\c1cc2ccccc2c2ccccc12
inactive: dose: 50.0 mg/kg/injection, schedule: Q01DX001 (ip), vehicle: alcohol 89 % of control | dose: 100.0 mg/kg/injection, schedule: Q01DX001 (ip), vehicle: alcohol 89 % of control | dose: 200.0 mg/kg/injection, schedule: Q01DX001 (ip), vehicle: alcohol 100 % of control | dose: 400.0 mg/kg/injection, schedule: Q01DX001 (ip), vehicle: alcohol 89 % of control

Ic1ccc(/C=C2\C=Cc3ccccc32)cc1
inactive: [10] 100 % of control | [11] 100 % of control | dose: 400.0 mg/kg/injection, schedule: Q01DX001 (ip), vehicle: carboxymethylcellulose (CMC) 100 % of control

OCCSC(SCCO)=C(SCCO)SCCO
inactive: [4] 105 % of control | [12] 97 % of control | [5] 102 % of control | [13] 92 % of control | [6] 96 % of control | [14] 94 % of control

Cc1nc(N)sc1N=Nc1cccc(Cl)c1Cl
inactive: dose: 75.0 mg/kg/injection, schedule: Q01DX001 (ip), vehicle: saline 88 % of control | dose: 150.0 mg/kg/injection, schedule: Q01DX001 (ip), vehicle: saline 92 % of control | dose: 300.0 mg/kg/injection, schedule: Q01DX001 (ip), vehicle: saline 93 % of control

CC1=NCCO1
inactive: dose: 100.0 mg/kg/injection, schedule: Q04DX003 (ip), vehicle: saline 102 % of control | dose: 200.0 mg/kg/injection, schedule: Q04DX003 (ip), vehicle: saline 105 % of control | dose: 400.0 mg/kg/injection, schedule: Q04DX003 (ip), vehicle: saline 105 % of control

O=[N+]([O-])c1cc2c(cc1/C=N/N=C1c3ccccc3-c3ccccc31)OCO2
inactive: dose: 75.0 mg/kg/injection, schedule: Q01DX001 (ip), vehicle: other 94 % of control | dose: 150.0 mg/kg/injection, schedule: Q01DX001 (ip), vehicle: other 92 % of control

CCC(C)NP(=O)(OC1CC(C)(C)N(O)C(C)(C)C1)OC1CC(C)(C)N(O)C(C)(C)C1 (stereo not drawn)
inactive: dose: 50.0 mg/kg/injection, schedule: Q01DX001 (ip), vehicle: water 98 % of control | dose: 100.0 mg/kg/injection, schedule: Q01DX001 (ip), vehicle: water 98 % of control | dose: 200.0 mg/kg/injection, schedule: Q01DX001 (ip), vehicle: water 94 % of control

Cc1nnc(NC(=O)NCCCl)s1
inactive: [12] 100 % of control | [13] 107 % of control | [14] 118 % of control

O=C(O)/C=C/C=C/c1ccccc1
inactive: [7] 97 % of control | [8] 92 % of control | [9] 106 % of control
